In US5286860A (priority 1992, dated 1994):

Assays:
[1] = system: benzodiazepine binding site; details: cited from earlier work
[2] = biological target: GABAa receptor; assay: GABAa receptor binding assay: inhibition of 3H-RO15-1788 (3H-Flumazenil) binding to rat cortical tissue; details: 0.5 nM 3H-RO15-1788, 30 min at 4° C., nonspecific binding with 1.0 μM diazepam
Protocol: The pharmaceutical utility of compounds of this invention are indicated by the following assay for GABAa receptor activity.
Assays are carried out as described in Thomas and Tallman (J. Bio. Chem. 156: 9838-9842, J. Neurosci. 3:433-440, 1983). Rat cortical tissue is dissected and homogenized in 25 volumes (w/v) of 0.05M Tris HCl buffer (pH 7.4 at 4° C.). The tissue homogenate is centrifuged in the cold (4°) at 20,000×g for 20'. The supernatant is decanted and the pellet is rehomogenized in the same volume of buffer and again centrifuged at 20,000×g. The supernatant is decanted and the pellet is frozen at -20° C. overnight. The pellet is then thawed and rehomogenized in 25 volume (original wt/vol) of buffer and the procedure is carried out twice. The pellet is finally resuspended in 50 volumes (w/vol of 0.05M Tris HCl buffer (pH 7.4 at […]).
Incubations contain 100 μl of tissue homogenate, 100 μl of radioligand 0.5 nM (^3 H-RO15-1788 [^3 H-Flumazenil] specific activity 80 Ci/mmol), drug or blocker and buffer to a total volume of 500 μl. Incubations are carried for 30 min at 4° C. then are rapidly filtered through GFB filters to separate free and bound ligand. Filters are washed twice with fresh 0.05M Tris HCl buffer (pH 7.4 at 4° C.) and counted in a liquid scintillation counter. 1.0 μM diazepam is added to some tubes to determine nonspecific binding. Data are collected in triplicate determinations, averaged and % inhibition of total specific binding is calculated. Total Specific Binding=Total-Nonspecific. In some cases, the amounts of unlabeled drugs is varied and total displacement curves of binding are carried out. Data are converted to a form for the calculation of IC50 and Hill Coefficient (nH).

Row | SMILES | block of GABA-agonist enhancement of benzodiazepine binding [1] | IC50 [2]
1 | CN1CCc2cc3c(cc2[C@H]1[C@@H]1OC(=O)c2c1ccc1c2OCO1)OCO3 [(+) bicuculline] | blocked | 
2 | CN1CCc2cc3c(cc2[C@@H]1[C@H]1OC(=O)c2c1ccc1c2OCO1)OCO3 [(-) bicuculline] | much less active | 
3 | COc1ccc(F)c(-c2cnc3[nH]c4c(c3n2)CCCC4)c1 [Compound 1, 2-(2-Fluoro-5-methoxyphenyl)-6,7,8,9-tetrahydro-5H-indolo[2,3-b]pyrazine] |  | 200 nM
4 | Fc1ccccc1-c1cnc2[nH]c3c(c2n1)CCCC3 [Compound 5, 2-(2-Fluorophenyl)-6,7,8,9-tetrahydro-5H-indolo[2,3-b]pyrazine] |  | 45 nM
5 | COc1ccc(-c2cnc3[nH]c4c(c3n2)CCCC4)c(F)c1 [Compound 11, 2-(2-Fluoro-4-methoxyphenyl)-6,7,8,9-tetrahydro-5H-indolo[2,3-b]pyrazine] |  | 29 nM
6 | COc1ccc(-c2cnc3[nH]c4ccccc4c3n2)c(F)c1 [Compound 12, 2-(2-Fluoro-4-methoxyphenyl)-5H-indolo[2,3-b]pyrazine] |  | 533 nM
